Experimental data: patent US8034810B2, “Arylsulfonamido-substituted hydroxamic acid derivatives” (Novartis AG, priority 1999, dated 2011)

Test system: EGFP transfected HT1080 cells
Experiment: Metastasis model with EGFP transfected HT1080 cells, lung fluorescence in nude mice
Format: in vivo
Details: tumor cells i.v., p.o. 60 mg/kg twice a day, lungs on day 17
Experimental: EGFP transfected HT1080: Nude mice were injected in the tail vein a suspension of tumor cells [2×10^6 cells/0.1 ml of PBS (phosphate buffered saline)]. Animals were dosed with compounds p.o. at −1 hr and +5 hrs relative to the time of the cell injection at the first day (day 0). After that the animals were dosed twice a day, firstly at 9-10:30 a.m. and secondly at 5:30-7:00 p.m. Compounds were administered as a suspension in 1% carboxymethyl cellulose (Wako, Japan) at a dose of 60 mg/kg twice a day. The vehicle alone was administered to the control group. On day 17, the lungs were removed from mice after sacrificing the animals. The removed lung tissues were divided into pieces of approximately 2-3 mm in diameter and then ca. 100 mg of tissues were suspended in 0.2 ml PBS in the microcentrifuge tubes followed by gentle homogenization and centrifugation. […] The fluorescence intensity was determined by using fluorescence plate reader (Cytoflour II) at the excitation and emission wavelength of 485 and 530 nm, respectively. The obtained fluorescence was normalized per lung using the wet lung weight. In this test a decrease in the fluorescence of 74% compared to the vehicle alone was determined for the compound of Example 68.

COc1ccc(CN(CC(=O)NO)S(=O)(=O)c2ccc(OCCCCl)cc2)cc1 [Example 68, 2-{[4-(3-chloro-propoxy)-benzenesulfonyl]-(4-methoxy-benzyl)amino}-N-hydroxy-acetamide]
decrease in the fluorescence compared to the vehicle alone: 74%
